Data set [1] deals with BSA (Bos taurus, UniProt P02769). Nature of the data set: Gel retardation study with BSA. The note with it: BSA, weight ratio. The format is binding, bovine. Here is the method: (§1) Twenty (20) μg EB, hEB, hEB-platin, or hEB-DTG were mixed with or without various amounts of BSA, globulin, fibrinogen or FBS in 200 μL saline water, then 40 μL of the mixed solution were loaded to 1.5 % agarose gel and run under 120 V for 30 min.

Data set [2] relates to globulin. Nature of the data set: Gel retardation study with globulin. Type of data set: binding. The protocol:
as §1

The target of data set [3] is T1, fibrinogen (Homo sapiens, UniProt P02671+P02675+P02679).
T1 sequence (P02671 20-629 limits assumed): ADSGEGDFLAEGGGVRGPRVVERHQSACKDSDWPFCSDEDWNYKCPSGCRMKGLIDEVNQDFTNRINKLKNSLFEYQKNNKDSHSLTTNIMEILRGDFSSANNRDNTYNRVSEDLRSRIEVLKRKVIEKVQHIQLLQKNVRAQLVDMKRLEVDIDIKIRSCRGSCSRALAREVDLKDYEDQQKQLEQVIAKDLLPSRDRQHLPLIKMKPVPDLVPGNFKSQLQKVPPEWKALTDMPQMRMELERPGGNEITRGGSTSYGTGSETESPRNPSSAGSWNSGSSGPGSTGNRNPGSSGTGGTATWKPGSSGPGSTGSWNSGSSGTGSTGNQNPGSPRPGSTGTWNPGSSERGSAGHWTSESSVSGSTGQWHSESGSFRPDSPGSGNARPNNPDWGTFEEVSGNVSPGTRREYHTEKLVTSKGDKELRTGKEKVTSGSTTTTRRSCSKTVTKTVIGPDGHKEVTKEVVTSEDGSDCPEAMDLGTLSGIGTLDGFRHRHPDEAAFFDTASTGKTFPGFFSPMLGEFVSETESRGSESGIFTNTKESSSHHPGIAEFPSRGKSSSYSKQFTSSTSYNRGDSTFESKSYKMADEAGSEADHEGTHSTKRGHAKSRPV
T1 sequence (P02675 31-491): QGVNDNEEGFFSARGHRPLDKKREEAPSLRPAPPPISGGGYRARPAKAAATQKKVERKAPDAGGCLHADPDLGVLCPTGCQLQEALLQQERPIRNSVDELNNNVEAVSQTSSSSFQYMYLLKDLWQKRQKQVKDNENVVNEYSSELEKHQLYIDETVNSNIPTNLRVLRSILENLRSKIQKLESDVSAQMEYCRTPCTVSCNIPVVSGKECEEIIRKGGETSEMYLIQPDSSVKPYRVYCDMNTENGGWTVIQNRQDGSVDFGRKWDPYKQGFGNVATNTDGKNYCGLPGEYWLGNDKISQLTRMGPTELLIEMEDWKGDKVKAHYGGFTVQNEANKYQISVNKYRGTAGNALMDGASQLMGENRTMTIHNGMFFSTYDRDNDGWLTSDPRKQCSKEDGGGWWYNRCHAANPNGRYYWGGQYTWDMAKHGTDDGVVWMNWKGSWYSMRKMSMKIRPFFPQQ
T1 sequence (P02679 27-453): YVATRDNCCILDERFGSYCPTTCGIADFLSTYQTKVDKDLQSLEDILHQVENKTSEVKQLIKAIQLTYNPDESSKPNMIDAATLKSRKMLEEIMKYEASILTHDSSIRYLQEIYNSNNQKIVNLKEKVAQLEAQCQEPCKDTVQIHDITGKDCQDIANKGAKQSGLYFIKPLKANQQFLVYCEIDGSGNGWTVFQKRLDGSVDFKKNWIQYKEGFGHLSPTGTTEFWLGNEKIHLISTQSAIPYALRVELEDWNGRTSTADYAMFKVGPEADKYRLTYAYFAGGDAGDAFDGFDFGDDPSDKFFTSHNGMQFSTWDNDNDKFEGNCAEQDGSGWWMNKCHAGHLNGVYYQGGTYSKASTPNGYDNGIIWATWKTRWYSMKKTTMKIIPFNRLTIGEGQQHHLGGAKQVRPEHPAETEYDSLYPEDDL
Nature of the data set: Gel retardation study with fibrinogen. The format is binding. The protocol:
as §1

Data set [4] deals with HUVEC monolayer. Nature of the data set: Transwell study: transport across a HUVEC monolayer, flow cytometry of HEK293T cells in lower chamber. The format is cell-based. The conditions noted are these: 8 h; for EB transport across a HUVEC monolayer: EB-positive cells in the lower chamber: Fig. 1J. The protocol:
HEK293T were seeded to 6-well plates as lower chamber and HUVEC were seeded to Corning (NY, USA) 6-well plate inserts (0.4 μm pore size) in another plate as upper chamber, respectively. After incubation and the cell layer on the upper chamber became intact, the culture medium in the inserts was replaced by fresh medium containing 0, 5 or 20 μg/mL filipin and 0 or 10 μg/mL LPS for overnight incubation. Next, the culture medium in the inserts was replaced with fresh medium containing 10 μM EB, hEB or hEB-DTG and 2 mg/mL BSA, then the inserts were moved to the wells cultured with HEK293T cells for incubation of 8 h at 37 °C. After that, HEK293T cells in the lower chambers were washed with cold PBS.
EB signals in HEK293T cells were quantified by flow cytometry. Fluorescence was examined at an excitation wavelength of 532 nm and an emission wavelength of 660 nm. 10 × 10^4 events were collected for each sample.

For data set [5], the system named is HEK293T cells. Nature of the data set: Cellular uptake study in vitro (flow cytometry). The conditions noted are these: in words. Type of data set: cell-based. Here is the method: HEK293T or HUVEC cells were seeded to 6-well plates. After overnight incubation, the culture medium was replaced by fresh medium containing 10 μM EB and 2, 5, or 20 mg/mL BSA for incubation of 0.5, 1 or 3 h at 37 °C. Later, cells were washed with cold PBS and fixed with PBS containing 4 % (w/v) formaldehyde.
Cellular uptake of different treatments was quantified by flow cytometry. Fluorescence was examined at an excitation wavelength of 532 nm and an emission wavelength of 660 nm. 10 × 10^4 events were collected for each sample.
(Flow cytometry measures light scatter and fluorescence of single cells or particles in a stream.)

Data set [6] can be described thus: Distribution in LN tissue and cells in LNs after i.v. injection (fluorescence microscopy, flow cytometry). The format is in vivo. The protocol: Five (5) μM/kg EB, hEB or hEB-DTG were i.v. injected into mice pretreated intraperitoneally with or without 2.5 mg/kg LPS for 24 h. After 24 h, LNs from different sites were collected and their signals of EB were checked under fluorescent microscopy. To evaluate the EB signals in various types of cells, LNs were disrupted mechanically using scissors, digested with a mixture of deoxyribonuclease I (0.3 mg/mL, Sigma-Aldrich) and TL Liberase (0.25 mg/mL, Roche, IN, USA) in serum-free RPMI-1640 at 37 °C for 30 min, and dispersed through a 40 μm cell strainer (BD Biosciences, CA, USA). After red blood cell lysis, live/dead cell discrimination was performed using a Zombie NIR Fixable Viability Kit (BioLegend, CA, USA, dilution: 1/1000) at 4 °C for 30 min in DPBS. Surface staining was performed at 4 °C for 30 min in FACS staining buffer (1 × phosphate-buffered saline/5 % FBS/0.5 % sodium azide) containing designated antibody cocktails (PerCP anti-mouse CD45 antibody, Brilliant Violet 785 anti-mouse CD4 antibody, FITC anti-mouse CD8 antibody, APC anti-mouse CD11b antibody, APC/Cyanine7 anti-mouse F4/80 antibody, Pacific Blue anti-mouse CD19 antibody and AF647 anti-mouse CD27 antibody; dilution: 1/200 for all antibodies). Flow cytometry was performed with LSRII (BD Biosciences) and Aurora (Cytek Biosciences, CA, USA) instruments and analyzed by FlowJo (BD Biosciences). The EB signals in each type of cell were quantified as mentioned above.

Data set [7] concerns albumin. On the set-up: method as in PMID 27682195. The conditions noted are these: cited from earlier work.

The text below walks through data of publication PMC13338763, “Harnessing albumin as a carrier for the delivery of anti-HIV drugs to the lymphatic system” (Acta biomaterialia, 2025).

Molecules are shown by their SMILES.

BSA, sequence (P02769 25-607): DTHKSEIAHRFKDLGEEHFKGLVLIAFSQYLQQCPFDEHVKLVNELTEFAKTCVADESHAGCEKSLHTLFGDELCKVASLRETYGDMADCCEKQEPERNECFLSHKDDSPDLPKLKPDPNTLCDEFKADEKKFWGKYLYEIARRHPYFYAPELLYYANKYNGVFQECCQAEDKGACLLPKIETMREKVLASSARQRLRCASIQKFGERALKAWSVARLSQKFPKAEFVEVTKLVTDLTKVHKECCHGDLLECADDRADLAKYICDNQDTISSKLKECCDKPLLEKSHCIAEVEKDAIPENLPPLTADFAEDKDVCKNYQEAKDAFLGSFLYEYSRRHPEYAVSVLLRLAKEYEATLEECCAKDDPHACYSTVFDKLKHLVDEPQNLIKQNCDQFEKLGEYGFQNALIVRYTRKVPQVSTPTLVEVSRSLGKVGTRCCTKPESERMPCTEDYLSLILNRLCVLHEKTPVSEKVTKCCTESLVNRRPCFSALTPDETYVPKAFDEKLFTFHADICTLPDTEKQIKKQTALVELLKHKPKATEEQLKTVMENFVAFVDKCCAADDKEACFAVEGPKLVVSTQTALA

On to `Cc1cc(-c2ccc(/N=N/c3ccc4c(S(=O)(=O)O)cc(S(=O)(=O)O)c(N)c4c3O)c(C)c2)ccc1/N=N/c1ccc2c(S(=O)(=O)O)cc(S(=O)(=O)O)c(N)c2c1O` [EB, Evans Blue], for which, in data set [1], the “albumin/EB weight ratio at which the majority of EB molecules were bound to albumin” value was not below 25. Moreover, the binding to globulin entry in data set [2] was “no detectable binding”. Also, the binding to fibrinogen result in data set [3] was “no detectable binding”. Besides, the “EB transport across a HUVEC monolayer: EB-positive cells in the lower chamber” value came to 98.8% in data set [4] (CT (no pretreatment)), 9.66% in data set [4] (HUVEC pretreated with LPS + filipin), 98.7% in data set [4] (HUVEC pretreated with LPS) and 5.04% in data set [4] (HUVEC pretreated with filipin). For the same molecule, the “transport across endothelial cell monolayer” value in data set [4] (albumin-bound, in words) is “strong fluorescent signals were detected in the lower chamber”. Moreover, the cellular uptake entry in data set [5] is “efficient and albumin-dependent”. Moreover, the “fluorescence signal in LNs” value in data set [6] (24 h post i.v. injection, in words) is recorded as “Robust EB fluorescence was detected in all LNs examined”. In addition, in data set [6] (24 h post-injection, LPS 2.5 mg/kg i.p.), the “EB signals in LNs of LPS-treated vs naive mice” value is on record as “not significantly different”. Moreover, the “uptake by immune cell populations in LNs” value in data set [6] (flow cytometry, in words) is “significant EB signal across multiple cell populations”. Further, the “EB molecules bound per albumin molecule” value in data set [7] is reported as “up to 14”.
